The source made the active and inactive calls. No cut-off for these calls is given here.
How the values were obtained:
[1] = target: T1, Beta-galactosidase (Bos taurus) (UniProt Q58D55); assay: Inhibitory activity against beta-galactosidase in bovine liver at 1 mM
T1 sequence (whole entry): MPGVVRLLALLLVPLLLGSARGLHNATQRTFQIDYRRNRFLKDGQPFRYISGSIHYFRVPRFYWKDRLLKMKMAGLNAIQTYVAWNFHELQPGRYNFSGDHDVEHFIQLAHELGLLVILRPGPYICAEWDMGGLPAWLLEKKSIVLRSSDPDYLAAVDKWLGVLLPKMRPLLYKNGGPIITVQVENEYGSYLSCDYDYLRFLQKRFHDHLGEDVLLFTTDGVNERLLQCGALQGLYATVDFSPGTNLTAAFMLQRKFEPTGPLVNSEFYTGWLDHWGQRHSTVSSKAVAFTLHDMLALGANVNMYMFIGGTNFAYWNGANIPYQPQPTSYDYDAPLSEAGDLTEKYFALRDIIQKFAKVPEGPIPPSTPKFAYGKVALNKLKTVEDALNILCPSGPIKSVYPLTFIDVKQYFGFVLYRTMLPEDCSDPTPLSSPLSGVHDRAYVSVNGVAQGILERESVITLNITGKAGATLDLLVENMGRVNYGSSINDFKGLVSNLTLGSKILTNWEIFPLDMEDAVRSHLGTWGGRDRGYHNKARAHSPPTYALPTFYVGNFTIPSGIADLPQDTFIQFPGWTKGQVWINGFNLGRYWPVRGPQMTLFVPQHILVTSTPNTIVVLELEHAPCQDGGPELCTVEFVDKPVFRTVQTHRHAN

[2] = system: Beta-hexosaminidase (Bos taurus); assay: Inhibitory activity against beta-N-acetylglucosaminidase in bovine kidney at 1 mM
Saccharomyces cerevisiae = assay: Inhibitory activity against alpha-glucosidase in yeast; details: concentration not given here
[3] = system: Beta-hexosaminidase (Canavalia ensiformis); assay: Inhibitory activity against beta-N-acetylglucosaminidase in jack beans at 1 mM
[4] = target: Alpha-galactosidase (Oryza sativa Japonica Group) (UniProt Q9FXT4); assay: Inhibitory activity against alpha-galactosidase in rice at 1 mM
[5] = Inhibitory activity against beta-mannosidase in Helix pomatia at 1 mM
[6] = target: Glucoamylase (Aspergillus niger) (UniProt P69328); assay: Inhibitory activity against amyloglucosidase in Aspergillus niger at 1 mM
[7] = target: T2, Alpha-galactosidase (Escherichia coli K-12) (UniProt P06720); assay: Inhibitory activity against alpha-galactosidase in Escherichia coli at 1 mM
T2 sequence (whole entry): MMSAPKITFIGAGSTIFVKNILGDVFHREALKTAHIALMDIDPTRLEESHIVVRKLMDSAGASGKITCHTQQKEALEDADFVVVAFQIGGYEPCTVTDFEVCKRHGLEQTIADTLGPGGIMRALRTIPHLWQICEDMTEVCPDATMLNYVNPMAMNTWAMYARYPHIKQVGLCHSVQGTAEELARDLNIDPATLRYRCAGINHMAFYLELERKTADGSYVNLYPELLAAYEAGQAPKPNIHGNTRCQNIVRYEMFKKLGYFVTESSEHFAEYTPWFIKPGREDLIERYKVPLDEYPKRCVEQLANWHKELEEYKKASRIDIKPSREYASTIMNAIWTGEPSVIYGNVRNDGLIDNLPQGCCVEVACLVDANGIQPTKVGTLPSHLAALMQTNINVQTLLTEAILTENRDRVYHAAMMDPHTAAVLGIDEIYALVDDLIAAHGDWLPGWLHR

[8] = target: T3, Exo-1,4-beta-xylosidase xlnD (Aspergillus niger) (UniProt O00089); assay: Inhibitory activity against beta-xylosidase in Aspergillus niger at 1 mM
T3 sequence (whole entry): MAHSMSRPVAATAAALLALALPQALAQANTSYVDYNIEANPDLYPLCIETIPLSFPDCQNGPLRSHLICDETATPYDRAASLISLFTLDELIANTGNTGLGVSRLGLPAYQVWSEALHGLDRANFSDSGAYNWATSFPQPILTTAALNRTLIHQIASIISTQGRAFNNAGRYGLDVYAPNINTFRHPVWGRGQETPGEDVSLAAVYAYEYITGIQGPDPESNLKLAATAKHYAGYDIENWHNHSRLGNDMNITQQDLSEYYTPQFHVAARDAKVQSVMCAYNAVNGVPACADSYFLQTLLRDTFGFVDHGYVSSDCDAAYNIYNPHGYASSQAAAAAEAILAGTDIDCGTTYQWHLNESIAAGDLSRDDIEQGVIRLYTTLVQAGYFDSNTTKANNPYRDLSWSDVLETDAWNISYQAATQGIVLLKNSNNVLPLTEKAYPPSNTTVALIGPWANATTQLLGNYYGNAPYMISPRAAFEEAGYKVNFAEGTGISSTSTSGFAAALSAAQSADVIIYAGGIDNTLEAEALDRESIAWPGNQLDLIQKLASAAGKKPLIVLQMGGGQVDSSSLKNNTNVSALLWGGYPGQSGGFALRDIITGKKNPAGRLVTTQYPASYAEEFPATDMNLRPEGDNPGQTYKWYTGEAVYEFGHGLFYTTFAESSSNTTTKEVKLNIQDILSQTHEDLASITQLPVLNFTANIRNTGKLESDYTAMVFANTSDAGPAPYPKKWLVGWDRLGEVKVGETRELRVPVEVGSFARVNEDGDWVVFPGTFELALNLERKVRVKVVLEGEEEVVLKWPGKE

[9] = target: T4, Glucoamylase 1 (Rhizopus oryzae) (UniProt P07683); assay: Inhibitory activity against amyloglucosidase in Rhizopus mold at 1 mM
T4 sequence (whole entry): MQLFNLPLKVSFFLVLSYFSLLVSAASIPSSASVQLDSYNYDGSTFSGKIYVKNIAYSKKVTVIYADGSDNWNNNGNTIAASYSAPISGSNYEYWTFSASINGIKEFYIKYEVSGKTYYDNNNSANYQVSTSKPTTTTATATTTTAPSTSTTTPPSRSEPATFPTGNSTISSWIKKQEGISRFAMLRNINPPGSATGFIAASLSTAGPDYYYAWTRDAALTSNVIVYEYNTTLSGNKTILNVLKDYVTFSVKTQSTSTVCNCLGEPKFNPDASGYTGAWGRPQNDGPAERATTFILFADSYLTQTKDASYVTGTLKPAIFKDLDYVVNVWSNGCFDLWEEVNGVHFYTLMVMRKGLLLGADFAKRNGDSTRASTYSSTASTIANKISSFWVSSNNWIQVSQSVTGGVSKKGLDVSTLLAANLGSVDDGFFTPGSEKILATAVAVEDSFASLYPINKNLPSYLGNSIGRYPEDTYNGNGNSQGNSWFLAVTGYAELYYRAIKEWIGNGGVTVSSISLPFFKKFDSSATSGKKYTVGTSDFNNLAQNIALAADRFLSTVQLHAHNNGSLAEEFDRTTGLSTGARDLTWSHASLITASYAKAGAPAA

[10] = target: T5, Beta-galactosidase/ beta-glucuronidase (Aspergillus oryzae (strain ATCC 42149 / RIB 40)) (UniProt Q2TXB7); assay: Inhibitory activity against beta-galactosidase in Aspergillus oryzae at 1 mM
T5 sequence (whole entry): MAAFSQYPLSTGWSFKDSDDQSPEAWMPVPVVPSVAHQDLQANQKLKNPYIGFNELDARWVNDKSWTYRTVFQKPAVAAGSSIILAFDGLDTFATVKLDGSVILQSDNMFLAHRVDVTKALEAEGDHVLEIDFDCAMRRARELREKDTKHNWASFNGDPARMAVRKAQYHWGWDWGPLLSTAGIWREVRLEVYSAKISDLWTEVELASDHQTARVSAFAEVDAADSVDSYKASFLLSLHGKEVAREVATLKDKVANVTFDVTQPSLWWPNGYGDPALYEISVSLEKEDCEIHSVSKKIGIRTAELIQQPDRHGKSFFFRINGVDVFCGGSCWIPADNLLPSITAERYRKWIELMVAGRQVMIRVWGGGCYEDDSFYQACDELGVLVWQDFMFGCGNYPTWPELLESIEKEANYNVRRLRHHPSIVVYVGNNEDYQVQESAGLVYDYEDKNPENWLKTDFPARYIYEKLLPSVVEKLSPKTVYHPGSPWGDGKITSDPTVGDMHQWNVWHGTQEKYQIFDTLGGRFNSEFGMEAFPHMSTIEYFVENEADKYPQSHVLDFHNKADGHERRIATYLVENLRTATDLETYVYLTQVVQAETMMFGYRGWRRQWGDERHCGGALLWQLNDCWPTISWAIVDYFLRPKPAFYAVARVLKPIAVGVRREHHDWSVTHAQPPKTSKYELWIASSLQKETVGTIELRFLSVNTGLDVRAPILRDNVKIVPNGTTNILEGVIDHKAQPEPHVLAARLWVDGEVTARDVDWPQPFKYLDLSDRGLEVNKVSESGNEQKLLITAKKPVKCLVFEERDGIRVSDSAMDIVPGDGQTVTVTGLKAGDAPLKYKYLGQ

[11] = target: T6, Tissue alpha-L-fucosidase (Bos taurus) (UniProt Q2KIM0); assay: Inhibitory activity against alpha-L-fucosidase in bovine brain at 1 mM
T6 sequence (whole entry): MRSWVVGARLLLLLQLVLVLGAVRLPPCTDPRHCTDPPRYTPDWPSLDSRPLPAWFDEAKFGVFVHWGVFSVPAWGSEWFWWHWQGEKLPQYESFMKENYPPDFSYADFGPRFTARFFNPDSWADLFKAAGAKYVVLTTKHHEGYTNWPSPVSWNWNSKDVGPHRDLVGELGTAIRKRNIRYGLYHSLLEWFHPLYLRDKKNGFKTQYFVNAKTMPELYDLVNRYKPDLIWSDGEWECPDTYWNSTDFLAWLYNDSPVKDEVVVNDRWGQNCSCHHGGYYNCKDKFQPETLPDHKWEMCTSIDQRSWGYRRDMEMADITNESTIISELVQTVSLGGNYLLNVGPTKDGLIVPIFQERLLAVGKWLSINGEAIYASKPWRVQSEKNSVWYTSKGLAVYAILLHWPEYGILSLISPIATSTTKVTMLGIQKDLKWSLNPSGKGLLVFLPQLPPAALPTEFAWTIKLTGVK

[12] = target: Alpha-galactosidase (Coffea arabica) (UniProt Q5DUH8); assay: Inhibitory activity against alpha-galactosidase in coffee beans at 1 mM
Alpha-galactosidase (Coffea arabica), sequence (Q5DUH8 as listed by the source): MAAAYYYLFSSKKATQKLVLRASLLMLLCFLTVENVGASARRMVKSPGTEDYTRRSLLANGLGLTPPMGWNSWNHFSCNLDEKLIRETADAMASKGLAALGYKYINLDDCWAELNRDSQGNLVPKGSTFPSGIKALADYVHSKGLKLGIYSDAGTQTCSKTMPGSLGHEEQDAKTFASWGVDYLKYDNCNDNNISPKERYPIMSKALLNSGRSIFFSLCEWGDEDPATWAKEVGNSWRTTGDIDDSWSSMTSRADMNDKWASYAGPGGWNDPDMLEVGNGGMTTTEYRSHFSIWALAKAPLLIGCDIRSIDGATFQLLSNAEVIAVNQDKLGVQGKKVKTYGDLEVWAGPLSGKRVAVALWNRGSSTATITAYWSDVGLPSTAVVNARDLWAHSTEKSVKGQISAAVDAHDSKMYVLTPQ

Alpha-galactosidase (Oryza sativa Japonica Group), sequence (Q9FXT4 whole entry): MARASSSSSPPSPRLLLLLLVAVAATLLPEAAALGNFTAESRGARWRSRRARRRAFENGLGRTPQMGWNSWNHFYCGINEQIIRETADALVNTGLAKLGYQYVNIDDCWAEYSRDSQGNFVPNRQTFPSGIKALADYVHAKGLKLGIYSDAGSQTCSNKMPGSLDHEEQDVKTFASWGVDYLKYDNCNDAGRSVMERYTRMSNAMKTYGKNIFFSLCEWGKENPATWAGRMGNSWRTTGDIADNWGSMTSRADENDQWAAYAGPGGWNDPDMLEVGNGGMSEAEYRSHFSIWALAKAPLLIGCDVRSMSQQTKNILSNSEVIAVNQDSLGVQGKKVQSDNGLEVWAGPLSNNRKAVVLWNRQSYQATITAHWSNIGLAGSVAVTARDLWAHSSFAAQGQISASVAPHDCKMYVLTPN
Glucoamylase (Aspergillus niger), sequence (P69328 whole entry): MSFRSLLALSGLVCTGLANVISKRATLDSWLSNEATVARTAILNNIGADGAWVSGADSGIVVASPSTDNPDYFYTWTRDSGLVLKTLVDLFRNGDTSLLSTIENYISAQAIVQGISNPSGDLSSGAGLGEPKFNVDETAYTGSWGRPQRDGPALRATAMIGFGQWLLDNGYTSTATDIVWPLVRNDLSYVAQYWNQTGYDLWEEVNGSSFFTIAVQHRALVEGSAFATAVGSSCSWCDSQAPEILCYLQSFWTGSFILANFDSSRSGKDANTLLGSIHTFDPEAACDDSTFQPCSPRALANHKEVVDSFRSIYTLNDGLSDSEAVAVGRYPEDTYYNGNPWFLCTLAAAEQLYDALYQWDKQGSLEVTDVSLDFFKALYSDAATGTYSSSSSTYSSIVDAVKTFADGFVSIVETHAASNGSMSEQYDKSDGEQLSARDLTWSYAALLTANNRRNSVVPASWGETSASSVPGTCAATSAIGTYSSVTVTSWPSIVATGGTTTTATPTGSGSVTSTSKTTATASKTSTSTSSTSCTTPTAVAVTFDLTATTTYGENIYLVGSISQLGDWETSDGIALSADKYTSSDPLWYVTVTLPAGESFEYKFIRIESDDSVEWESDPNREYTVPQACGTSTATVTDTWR

Activity [1] | Activity [2] | inhibition (Saccharomyces cerevisiae) [%] | Activity [3] | Activity [4] | Activity [5] | Activity [6] | Activity [7] | Activity [8] | Activity [9] | Activity [10] | Activity [11] | Activity [12] | SMILES
inactive | inactive | 48 | inactive | inactive | inactive | inactive | inactive | inactive | inactive | inactive | inactive | inactive | C[C@@H]1NC(=O)C(C)(O)C1O (some centres not stated)
inactive | inactive | 45 | inactive | inactive | inactive | inactive | inactive | inactive | inactive | inactive | inactive | inactive | CC1(O)C(=O)N2CCCC2C1O (configuration not stated)
inactive | inactive | 46 | inactive | inactive | inactive | inactive | inactive | inactive | inactive | inactive | inactive | inactive | C[C@@H]1CNC(=O)C(C)(O)C1O (some centres not stated)
inactive | inactive | 51 | inactive | inactive | inactive | inactive | inactive | inactive | inactive | inactive | inactive | inactive | CC(C)[C@@H]1NC(=O)C(C)(O)C1O (some centres not stated)

Source: ChEMBL document CHEMBL1148566, “Stereoselective synthesis and glycosidase inhibitory activity of 3,4-dihydroxy-pyrrolidin-2-one, 3,4-dihydroxy-piperidin-2-one and 1,2-dihydroxy-pyrrolizidin-3-one” (Bioorg Med Chem Lett, 2006)
